Each molecule was assayed against T1, USP14 (Homo sapiens (Human), UniProt P54578) (assay: Usp14 inhibition assay (Example 5A, A-series compounds)). Conditions: average value from a minimum of two experimental determinations; read-out: Usp14 IC50 Category.
Format: biochemical
From the text: Example 5A: Usp14 Inhibition Assay
(§1) The IC50 values in the Table below represent the average value from a minimum of two experimental determinations.

T1 sequence (P54578 whole entry, looked up): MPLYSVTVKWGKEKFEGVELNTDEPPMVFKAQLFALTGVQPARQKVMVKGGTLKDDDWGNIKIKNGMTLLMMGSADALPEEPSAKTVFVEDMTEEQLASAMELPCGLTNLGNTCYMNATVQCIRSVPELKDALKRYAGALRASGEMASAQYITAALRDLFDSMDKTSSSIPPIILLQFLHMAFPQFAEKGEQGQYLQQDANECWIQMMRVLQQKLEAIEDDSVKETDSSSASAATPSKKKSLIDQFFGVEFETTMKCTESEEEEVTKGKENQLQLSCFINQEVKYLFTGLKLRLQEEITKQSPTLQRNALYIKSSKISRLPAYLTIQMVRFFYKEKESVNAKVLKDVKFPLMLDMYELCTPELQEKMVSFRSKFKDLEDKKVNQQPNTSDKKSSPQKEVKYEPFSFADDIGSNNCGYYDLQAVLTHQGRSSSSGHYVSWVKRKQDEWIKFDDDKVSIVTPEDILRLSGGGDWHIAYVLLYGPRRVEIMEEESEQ

| SMILES | IC50 |
| --- | --- |
| Cc1c(C(=O)CN2C3CCC2[C@@H](O)C3)c2ccc(CCC#N)cc2n1-c1ccc(Cl)cc1 (mixture of isomers) [Example 10A, (±)-3-(1-(4-Chlorophenyl)-3-(2-((2S)-2-hydroxy-7-azabicyclo[2.2.1]heptan-7-yl)acetyl)-2-methyl-1H-indol-6-yl)propanenitrile] | < 0.05 µM |
| CO[C@H]1CC2CCC1N2CC(=O)c1c(C)n(-c2ccc(Cl)cc2)c2cc(CCC#N)ccc12 (mixture of isomers) [Example 15A, (±)-3-(1-(4-Chlorophenyl)-3-(2-((2S)-2-methoxy-7-azabicyclo[2.2.1]heptan-7-yl)acetyl)-2-methyl-1H-indol-6-yl)propanenitrile] | < 0.05 µM |
| Cc1c(C(=O)CN2C3CCC2[C@@H](O)C3)c2ccc(CCCC#N)cc2n1-c1ccc(Cl)cc1 (mixture of isomers) [Example 18A, (±)-4-(1-(4-Chlorophenyl)-3-(2-((2S)-2-hydroxy-7-azabicyclo[2.2.1]heptan-7-yl)acetyl)-2-methyl-1H-indol-6-yl)butanenitrile] | < 0.05 µM |
| CO[C@H]1CC2CCC1N2CC(=O)c1c(C)n(-c2ccc(Cl)cc2)c2cc(CCCC#N)ccc12 (mixture of isomers) [Example 19A, (±)-4-(1-(4-Chlorophenyl)-3-(2-((2S)-2-methoxy-7-azabicyclo[2.2.1]heptan-7-yl)acetyl)-2-methyl-1H-indol-6-yl)butanenitrile] | < 0.05 µM |
| Cc1c(C(=O)CN2C3CCC2C(O)C3)c2ccc(CC3COC3)cc2n1-c1ccc(Cl)cc1 (stereo in doubt) [Example 13A, 1-(1-(4-Chlorophenyl)-2-methyl-6-(oxetan-3-ylmethyl)-1H-indol-3-yl)-2-((1R,2R,4S)-2-hydroxy-7-azabicyclo[2.2.1]heptan-7-yl)ethan-1-one] | < 0.05 µM |
| Cc1c(C(=O)CN2C3CC[C@@H]2C[C@](O)(C(C)(C)C)C3)c2ccc(CCC#N)cc2n1-c1ccc(Cl)cc1 (stereo in doubt) [Example 31A, 3-(3-(2-(3-(tert-Butyl)-3-hydroxy-8-azabicyclo[3.2.1]octan-8-yl)acetyl)-1-(4-chlorophenyl)-2-methyl-1H-indol-6-yl)propanenitrile] | > 0.1 µM |
| Cc1c(C(=O)CN2C3CCC2CC3)c2ccc(CCS(C)(=O)=O)cc2n1-c1ccc(Cl)cc1 [Example 1A, 2-(7-Azabicyclo[2.2.1]heptan-7-yl)-1-(1-(4-chlorophenyl)-2-methyl-6-(2-(methylsulfonyl)ethyl)-1H-indol-3-yl)ethan-1-one] | < 0.05 µM |
| Cc1c(C(=O)CN2[C@@H]3CCC[C@H]2CC3)c2ccc(CCS(C)(=O)=O)cc2n1-c1ccc(Cl)cc1 [Example 2A, 2-((1R,5S)-8-Azabicyclo[3.2.1]octan-8-yl)-1-(1-(4-chlorophenyl)-2-methyl-6-(2-(methylsulfonyl)ethyl)-1H-indol-3-yl)ethan-1-one] | < 0.05 µM |
| Cc1c(C(=O)CN2C3CCC2CC3)c2ccc(CS(C)(=O)=O)cc2n1-c1ccc(Cl)cc1 [Example 3A, 2-(7-Azabicyclo[2.2.1]heptan-7-yl)-1-(1-(4-chlorophenyl)-2-methyl-6-((methylsulfonyl)methyl)-1H-indol-3-yl)ethan-1-one] | 0.05 to 0.1 µM |
| Cc1c(C(=O)CN2C3CCC2CC(O)C3)c2ccc(CCS(C)(=O)=O)cc2n1-c1ccc(Cl)cc1 [Example 5A, 1-(1-(4-Chlorophenyl)-2-methyl-6-(2-(methylsulfonyl)ethyl)-1H-indol-3-yl)-2-((1R,3S,5S)-3-hydroxy-8-azabicyclo[3.2.1]octan-8-yl)ethan-1-one] | < 0.05 µM |
| Cc1c(C(=O)CN2[C@H]3CC[C@@H]2[C@@H](O)C3)c2ccc(CCS(C)(=O)=O)cc2n1-c1ccc(Cl)cc1 [Example 6A, 1-(1-(4-Chlorophenyl)-2-methyl-6-(2-(methylsulfonyl)ethyl)-1H-indol-3-yl)-2-((1R,2S,4S)-2-hydroxy-7-azabicyclo[2.2.1]heptan-7-yl)ethan-1-one] | < 0.05 µM |
| Cc1c(C(=O)CN2CCC(O)CC2)c2ccc(CCS(C)(=O)=O)cc2n1-c1ccc(Cl)cc1 [Example 7A, 1-(1-(4-Chlorophenyl)-2-methyl-6-(2-(methylsulfonyl)ethyl)-1H-indol-3-yl)-2-(4-hydroxypiperidin-1-yl)ethan-1-one] | < 0.05 µM |
| Cc1c(C(=O)CN2C3CCC2CC3)c2ccc(CCC#N)cc2n1-c1ccc(Cl)cc1 [Example 8A, 3-(3-(2-(7-Azabicyclo[2.2.1]heptan-7-yl)acetyl)-1-(4-chlorophenyl)-2-methyl-1H-indol-6-yl)propanenitrile] | < 0.05 µM |
| Cc1c(C(=O)CN2CCC(O)CC2)c2ccc(CCC#N)cc2n1-c1ccc(Cl)cc1 [Example 9A] | > 0.1 µM |
| Cc1c(C(=O)CN2C3CCC2CC3)c2ccc(CC3COC3)cc2n1-c1ccc(Cl)cc1 [Example 11A, 2-(7-Azabicyclo[2.2.1]heptan-7-yl)-1-(1-(4-chlorophenyl)-2-methyl-6-(oxetan-3-ylmethyl)-1H-indol-3-yl)ethan-1-one] | < 0.05 µM |
| CO[C@H]1C[C@@H]2CC[C@H]1N2CC(=O)c1c(C)n(-c2ccc(Cl)cc2)c2cc(CC3COC3)ccc12 [Example 12A, 1-(1-(4-Chlorophenyl)-2-methyl-6-(oxetan-3-ylmethyl)-1H-indol-3-yl)-2-((1R,2S,4S)-2-methoxy-7-azabicyclo[2.2.1]heptan-7-yl)ethan-1-one] | 0.05 to 0.1 µM |
| Cc1c(C(=O)CN2CCC(O)CC2)c2ccc(CC3COC3)cc2n1-c1ccc(Cl)cc1 [Example 14A, 1-(1-(4-Chlorophenyl)-2-methyl-6-(oxetan-3-ylmethyl)-1H-indol-3-yl)-2-(4-hydroxypiperidin-1-yl)ethan-1-one] | 0.05 to 0.1 µM |
| Cc1c(C(=O)CN2C3CCC2CC3)c2ccc(CCS(=O)(=O)C3CC3)cc2n1-c1ccc(Cl)cc1 [Example 16A, 2-(7-Azabicyclo[2.2.1]heptan-7-yl)-1-(1-(4-chlorophenyl)-6-(2-(cyclopropylsulfonyl)ethyl)-2-methyl-1H-indol-3-yl)ethan-1-one] | < 0.05 µM |

The molecules below were run against T1, USP14 (assay: Usp14 inhibition assay (Example 57B, B-series compounds)). Conditions: IC50 class; average value from a minimum of two experimental determinations.
Format: biochemical
From the text: Example 57B: Usp14 Inhibition Assay
as §1

| SMILES | IC50 |
| --- | --- |
| Cc1cc(C(=O)CN2C3CC4CC2CC(O)(C4)C3)c(C)n1-c1ccc(C#N)cc1 [Example 81B, 4-(3-(2-((5s,7s)-5-Hydroxy-2-azaadamantan-2-yl)acetyl)-2,5-dimethyl-1H-pyrrol-1-yl)benzonitrile] | 0.05 to 0.5 µM |
| Cc1cc(C(=O)CN2C3CC4CC2CC(C3)O4)c(C)n1-c1ccc(C#N)cc1 [Example 84B, 4-(3-(2-((1r,3r)-2-Oxa-6-azaadamantan-6-yl)acetyl)-2,5-dimethyl-1H-pyrrol-1-yl)benzonitrile] | 0.05 to 0.5 µM |
| Cc1cc(C(=O)CN2C3CCCC2CC(O)C3)c(C)n1-c1ccc(C#N)cc1 [Example 85B, 4-(3-(2-((1R,3s,5S)-3-Hydroxy-9-azabicyclo[3.3.1]nonan-9-yl)acetyl)-2,5-dimethyl-1H-pyrrol-1-yl)benzonitrile] | 0.05 to 0.5 µM |
| Cc1cc(C(=O)CN2C3CCCC2CC(O)C3)c(C)n1-c1ccc(C#N)cc1 [Example 86B, 4-(3-(2-((1R,3r,5S)-3-Hydroxy-9-azabicyclo[3.3.1]nonan-9-yl)acetyl)-2,5-dimethyl-1H-pyrrol-1-yl)benzonitrile] | 0.05 to 0.5 µM |
| Cc1cc(C(=O)CN2C3CCCC2CCC3)c(C)n1-c1ccc(C#N)cc1 [Example 87B, 4-(3-(2-((1s,5s)-9-Azabicyclo[3.3.1]nonan-9-yl)acetyl)-2,5-dimethyl-1H-pyrrol-1-yl)benzonitrile] | 0.05 to 0.5 µM |
| COC1C[C@H]2CC[C@H](C1)N2CC(=O)c1cc(C)n(-c2ccc(C#N)cc2)c1C (stereo partly drawn) [Example 88B, 4-(3-(2-((1R,3r,5S)-3-Methoxy-8-azabicyclo[3.2.1]octan-8-yl)acetyl)-2,5-dimethyl-1H-pyrrol-1-yl)benzonitrile] | 0.05 to 0.5 µM |
| COC1C[C@H]2CC[C@H](C1)N2CC(=O)c1cc(C)n(-c2ccc(C#N)cc2)c1C (stereo partly drawn) [Example 89B, 4-(3-(2-((1R,3s,5S)-3-Methoxy-8-azabicyclo[3.2.1]octan-8-yl)acetyl)-2,5-dimethyl-1H-pyrrol-1-yl)benzonitrile] | 0.05 to 0.5 µM |
| Cc1c(F)c(C(=O)CN2C3CCC2CC3)c(C)n1-c1ccc(C#N)cc1 [Example 104B, 4-(3-(2-((1s,4s)-7-Azabicyclo[2.2.1]heptan-7-yl)acetyl)-4-fluoro-2,5-dimethyl-1H-pyrrol-1-yl)benzonitrile] | 0.05 to 0.5 µM |
| Cc1cc(C(=O)CN2[C@@H]3CC[C@H]2[C@@H](C)[C@H]3C)c(C)n1-c1ccc(C#N)cc1 [Example 124B, 4-(3-(2-((1R,2R,3S,4S)-2,3-Dimethyl-7-azabicyclo[2.2.1]heptan-7-yl)acetyl)-2,5-dimethyl-1H-pyrrol-1-yl)benzonitrile] | 0.05 to 0.5 µM |
| Cc1cc(C(=O)CN2C3CCC2(C)CC3)c(C)n1-c1ccc(C#N)cc1 [Example 125B, 4-(2,5-Dimethyl-3-(2-(1-methyl-7-azabicyclo[2.2.1]heptan-7-yl)acetyl)-1H-pyrrol-1-yl)benzonitrile] | 0.05 to 0.5 µM |
| Cc1cc(C(=O)CN2C3CCC2(CO)CC3)c(C)n1-c1ccc(C#N)cc1 [Example 126B, 4-(3-(2-(1-(Hydroxymethyl)-7-azabicyclo[2.2.1]heptan-7-yl)acetyl)-2,5-dimethyl-1H-pyrrol-1-yl)benzonitrile] | 0.05 to 0.5 µM |
| Cc1cc(C(=O)CN2C3CCC2(C(=O)O)CC3)c(C)n1-c1ccc(C#N)cc1 [Example 127B, 7-(2-(1-(4-Cyanophenyl)-2,5-dimethyl-1H-pyrrol-3-yl)-2-oxoethyl)-7-azabicyclo[2.2.1]heptane-1-carboxylic Acid] | > 0.5 µM |
| Cc1nc(Cc2c(Cl)c(C(=O)CN3C4CCC3[C@@H](O)C4)c(C)n2-c2ccc(C#N)cc2)cs1 (stereo partly drawn) [Example 128B] | < 0.05 µM |
| Cc1c(C(=O)CN2C3CCC2CC3)cc(C#N)n1-c1ccc(C#N)cc1 [Example 137B, 4-(2-(7-Azabicyclo[2.2.1]heptan-7-yl)acetyl)-1-(4-cyanophenyl)-5-methyl-1H-pyrrole-2-carbonitrile] | < 0.05 µM |
| Cc1cc(C(=O)CN2[C@@H]3CC[C@H]2[C@H](C)[C@@H]3C)c(C)n1-c1ccc(C#N)cc1 [Example 138B, 4-(3-(2-((1R,2S,3R,4S)-2,3-Dimethyl-7-azabicyclo[2.2.1]heptan-7-yl)acetyl)-2,5-dimethyl-1H-pyrrol-1-yl)benzonitrile] | > 0.5 µM |

From US11560385B2, “Proteasome activity enhancing compounds” (Proteostasis Therapeutics, Inc., priority 2018, dated 2023)
